# Measured values published in patent US9834754B2, “Populations of hematopoietic progenitors and methods of enriching stem cells therefor” (University Health Network, priority 2011, dated 2017).
# Legend:
# [1] = test system: phospho-SMAD2 (Activin/nodal signaling); test: Western blot / densitometry of phospho-Smad2 in day 2 EBs; format: cell-based, human; conditions: 30 minutes treatment, FIG. 4B
# Text: Thirty minutes after the addition of DMSO, Activin A, and/or SB at day 2 of differentiation, wells were harvested and lysed on ice using RIPA buffer. Proteins were separated by SDS-PAGE, transferred onto nitrocellulose membranes and probed overnight with Smad2 (Cell Signaling, 1:1000) and phospho-Smad2 antibodies (Millipore, 1:1000, […]/467). Membranes were scanned using the LI-COR Biosciences Odyssey imaging system.
# [2] = test system: other pathways or kinases including BMP4, ERK, JNK or p38 MAPK; conditions: Inman, 2002; cited from earlier work
# [3] = test system: CD34+CD43− cells isolated from Activin A induced or SB-treated EBs; test: T lymphoid precursor frequency analysis (limiting dilution assay on OP9-DL4 cells); format: cell-based, human; conditions: limiting dilution analyses, day 9 CD34+ population
# Description: (§1) The hESC line H1 (Thomson et al., 1998) and the reprogrammed human iPS cell line (MSC-iPS1; (Park et al., 2008)) were used in this study. They were maintained on irradiated mouse embryonic fibroblasts in hESC media as described previously (Kennedy et al., 2007). Prior to differentiation, the cells were feeder-depleted by culturing on matrigel (BD Biosciences, Bedford, Mass.) in hESC media for 24 to 48 hours. To generate EBs, hPSCs were treated with collagenase B (1 mg/ml; Roche, Indianapolis, Ind.) for 20 minutes followed by a short trypsin-EDTA (0.05%) step. Cells were gently scraped with a cell scraper to form small aggregates (10-20 cells). Aggregates were resuspended in StemPro-34 (Invitrogen), supplemented with penicillin/streptomycin (10 ng/mL), L-glutamine (2 mM), ascorbic acid (1 mM), monothioglycerol (MTG, 4×10^−4M; Sigma), and transferrin (150 μg/mL). […]
# Limiting dilution assays (LDA) of CD34+CD43− cells isolated from either Activin A induced or SB-treated EBs were performed by serial dilutions. […] The presence of CD45+CD7+CD43+CD5+ cells was scored. Progenitor frequencies were determined by the method of maximum likelihood applied to the Poisson model (Groth, 1982).
# [4] = test system: iPSC line MSC-iPS1; test: Hematopoietic differentiation of hiPSCs (flow cytometry and colony assay); format: cell-based, human; conditions: SB added between days 2 to 4; hiPSC; FIG. 7
# Description: as §1, with “cells).” for “cells). Aggregates were resuspended in StemPro-34 (Invitrogen), supplemented with penicillin/streptomycin (10 ng/mL), L-glutamine (2 mM), ascorbic acid (1 mM), monothioglycerol (MTG, 4×10^−4M; Sigma), and transferrin (150 μg/mL).”
# The following antibodies were used for these studies: CD3-APC (clone UCHT1), CD4-APC-EFluor750 (clone RPA-T4), CD5-PE-Cy7 (clone L17F12), CD7-FITC (clone M-T701), CD8-eFluor-650 NC (clone RPA-T8), CD31-FITC (clone WM59), CD33-FITC (clone HIM 3-4), CD34-APC (clone 8G12), CD34-PE-CY7 (clone 4H11), CD41-APC (clone HIP8), CD42b-PE (clone HIP1), CD43-PE (clone 1G10), CD45-APC-eFluor750 (clone 2D1) or CD45-PacificBlue (clone H130), CD56-PE-Cy7 (clone B159), CD90-APC (clone 5E10), CD117-APC (clone 104D2), CD144-PE (clone 123413), KDR-PE (clone 89106), TCRγδ-FITC (clone 11F2), TCRαβ-PE (clone T10B9.1A-31). Stained cells were analyzed using an LSRII (BD Biosciences) flow cytometer at the indicated time points. […]
smiles,measurement,setting,value
NC(=O)c1ccc(-c2nc(-c3ccc4c(c3)OCO4)c(-c3ccccn3)[nH]2)cc1 [SB-431542],levels of phospho-SMAD2 (densitometry),[1],significantly reduced
same,"inhibition of other pathways or kinases including BMP4, ERK, JNK or p38 MAPK",[2],no observed inhibition
same,frequency of T cell progenitors in SB-treated CD34+ population relative to Activin A-induced CD34+CD43− population,[3],more than 3 fold
same,development of CD41+/CD43+ populations and erythroid and erythroid-myeloid progenitors,[4],inhibited
